The target of one data set is T1, p38α (Homo sapiens, UniProt Q16539).
T1 construct: p38 MAP Kinases are recombinant human full-length proteins with an amino-terminal GST fusion; GST (N); purchased Upstate Biotechnology Inc; host or cells: E. coli
The data set can be described thus: p38 MAP Kinase assay: inhibition of ATF2 phosphorylation, ELISA. The format is biochemical. To be noted: for IC50: ATF2 phosphorylation, read-out: [ENZ] P38 ALPHA, IC50, ELISA. The procedure, abridged: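 GST-tagged full-length human p38 MAP kinase with GST-ATF2 (aa 19–96; 1.25 μM) and 40 μM ATP in HEPES pH 7.5 buffer, without (Method I) or with (Method II) 1% human serum albumin. Compound pre-incubated 15 min at room temperature; reaction 30 min at 37 °C; ATF2 Thr69 phosphorylation measured by ELISA (A450).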
For orientation: ELISA stands for enzyme-linked immunosorbent assay.

The test system of data set [1] is TNFα release from THP-1 cells. The data set can be described thus: Inhibition of TNFα release from LPS-stimulated THP-1 cells, ELISA. The following applies: Homo sapiens, THP-1, THP-1 cells, read-out: [CELL] THP-1, IC50, TNF ALPHA, ELISA. The format is cell-based. The essentials:
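Human THP-1 monocytes, 10^6 cells/ml in RPMI with 10% FBS, no serum or 1% HSA, preincubated 30 min at 37 °C with compound (≤0.5% DMSO), then stimulated with 10 μg/ml LPS for 18 h. Supernatant TNFα measured by ELISA; IC50 from non-linear dose-response regression.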

The structures appear in SMILES notation. A value given as a limit tells only on which side of the number the result lay.

T1 sequence (Q16539 whole entry, the tested form may be a part): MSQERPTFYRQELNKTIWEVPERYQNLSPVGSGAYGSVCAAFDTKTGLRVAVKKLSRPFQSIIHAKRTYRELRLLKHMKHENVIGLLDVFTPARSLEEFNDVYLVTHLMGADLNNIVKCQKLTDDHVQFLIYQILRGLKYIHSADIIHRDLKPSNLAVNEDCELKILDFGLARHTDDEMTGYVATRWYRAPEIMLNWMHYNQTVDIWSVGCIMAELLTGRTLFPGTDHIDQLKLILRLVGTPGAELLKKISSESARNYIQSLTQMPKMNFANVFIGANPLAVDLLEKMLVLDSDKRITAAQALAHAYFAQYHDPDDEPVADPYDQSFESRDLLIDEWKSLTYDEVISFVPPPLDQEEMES

By melting point is commonly meant the temperature of the solid-liquid transition. The IC50 is the concentration that gives 50% inhibition. Molecule `O=C(Nc1ccc(OCCN2CCOCC2)c2ccccc12)c1cccc(N2CCOCC2)c1` [Compound B169, 3-Morpholin-4-yl-N-[4-(2-morpholin-4-yl-ethoxy)-naphthalen-1-yl]-benzamide] returned a melting point of 90 to 92 °C. Also, the inhibition at 10 µM on p38α (10 uM, substrate ATF2, read-out: [ENZ] P38 ALPHA, PCT INH, ELISA (10 uM;ATF2) (Percent)) stood at 77.5%. In addition, the 50% inhibitory concentration (IC50) on p38α amounted to 2070 nM. The 50% inhibitory concentration (IC50) in data set [1] was 1330 nM.

Turning to `O=C1CN(CCCOc2ccc(NC(=O)c3cc(F)cc(N4CCCCC4)c3)c3ccccc23)CCN1` [Compound B175, 3-Fluoro-N-{4-[3-(3-oxo-piperazin-1-yl)-propoxy]-naphthalen-1-yl}-5-piperidin-1-yl-benzamide], the melting point lay within 90 to 92 °C. Besides, on p38α, the IC50 came out at 1110 nM. Besides, the IC50 in data set [1] was over 10000 nM.

On to `COc1ccc(CCOc2ccc(NC(=O)c3cc(F)cc(N4CCCCC4)c3)c3ccccc23)cc1OC` [Compound B179, N-{4-[2-(3,4-Dimethoxyphenyl)ethoxy]-1-naphthyl}-3-fluoro-5-piperidin-1-ylbenzamide], for which the melting point is 158 to 160 °C. Further, at p38α, the IC50 is 1060 nM. Also, the concentration for half-maximal inhibition (IC50) in data set [1] stood at 2050 nM.

`O=C(Nc1ccc(OCCCN2CCCC2=O)c2ccccc12)c1cc(F)cc(N2CCCCC2)c1` [Compound B182, 3-Fluoro-N-{4-[3-(2-oxopyrrolidin-1-yl)propoxy]-1-naphthyl}-5-piperidin-1-ylbenzamide] displayed a melting point of 88 to 89 °C. Further, on p38α, the IC50 was 587 nM. For the same molecule, the half-maximal inhibitory concentration (IC50) in data set [1] was over 10000 nM.

Take `O=C(Nc1ccc(OCCCN2CCNCC2)c2ccccc12)c1cc(F)cc(N2CCCCC2)c1` [Compound B183, 3-Fluoro-N-[4-(3-piperazin-1-yl-propoxy)-naphthalen-1-yl]-5-piperidin-1-yl-benzamide]: the melting point fell in the range of 70 to 72 °C. Moreover, the IC50 at p38α turned out to be 1140 nM. The 50% inhibitory concentration (IC50) in data set [1] was over 10000 nM.

Regarding `CC1CCN(c2cc(F)cc(C(=O)Nc3ccc(OCCN4CCOCC4)c4ccccc34)c2)CC1` [Compound B184, 3-Fluoro-5-(4-methylpiperidin-1-yl)-N-[4-(2-morpholin-4-ylethoxy)-1-naphthyl]benzamide], the melting point fell in the range of 116 to 118 °C. The IC50 on p38α was 1070 nM. Moreover, the half-inhibitory concentration (IC50) in data set [1] was 6990 nM.

The molecule `COc1ccc(CCOc2ccc(NC(=O)c3cc(F)cc(N4CCOCC4)c3)c3ccccc23)cc1OC` [Compound B189, N-{4-[2-(3,4-Dimethoxyphenyl)ethoxy]-1-naphthyl}-3-fluoro-5-morpholin-4-ylbenzamide] yielded a melting point of 73 to 75 °C. On p38α, the IC50 was 441 nM. Also, the IC50 in data set [1] was determined as 2610 nM.

In turn, `O=C(Nc1ccc(OCCc2cccnc2)c2ccccc12)c1cc(F)cc(N2CCOCC2)c1` [Compound B190] registered a melting point of 80 to 82 °C. In addition, the IC50 on p38α was 826 nM. Further, the IC50 in data set [1] is 7520 nM.

`CCC1CCC(Oc2cc(F)cc(C(=O)Nc3ccc(OCCN4CCOCC4)c4ccccc34)c2)CC1` (stereo not shown) [Compound B194, 3-[(4-Ethylcyclohexyl)oxy]-5-fluoro-N-[4-(2-morpholin-4-ylethoxy)-1-naphthyl]benzamide] displayed a melting point of 102 to 105 °C. Besides, the IC50 on p38α was determined as 9280 nM. In addition, in data set [1], the IC50 was over 10000 nM.

The molecule `O=C(Nc1ccc(OCCN2CCOCC2)c2ccccc12)c1cc(F)cc(OC2CCCCC2)c1` [Compound B195, 3-(Cyclohexyloxy)-5-fluoro-N-[4-(2-morpholin-4-ylethoxy)-1-naphthyl]benzamide] gave a melting point of 116 to 118 °C. Moreover, the IC50 at p38α stood at 413 nM. Besides, the half-maximal inhibitory concentration (IC50) in data set [1] is over 10000 nM.

Consider `CC1CCCN(c2cc(F)cc(C(=O)Nc3ccc(OCCN4CCOCC4)c4ccccc34)c2)C1` (stereo not shown) [Compound B202, 3-Fluoro-5-(3-methylpiperidin-1-yl)-N-[4-(2-morpholin-4-ylethoxy)-1-naphthyl]benzamide], for which the melting point lay within 145 to 148 °C. For the same molecule, the IC50 on p38α turned out to be 291 nM. Moreover, the IC50 in data set [1] was 9330 nM.

For `CCN(C)c1cc(F)cc(C(=O)Nc2ccc(OCCN3CCOCC3)c3ccccc23)c1` [Compound B207, 3-[Ethyl(methyl)amino]-5-fluoro-N-[4-(2-morpholin-4-ylethoxy)-1-naphthyl]benzamide], the melting point lay within 126 to 128 °C. Also, at p38α, the IC50 came out at 1120 nM. Besides, in data set [1], the IC50 is over 10000 nM.

As for `CC1CCCN1c1cc(F)cc(C(=O)Nc2ccc(OCCN3CCOCC3)c3ccccc23)c1` (stereo not shown) [Compound B208, 3-Fluoro-5-(2-methylpyrrolidin-1-yl)-N-[4-(2-morpholin-4-ylethoxy)-1-naphthyl]benzamide], the melting point was 108 to 111 °C. In addition, the IC50 on p38α was 167 nM. The half-inhibitory concentration (IC50) in data set [1] was found to be 3640 nM.

With `CC(C)CN(C)c1cc(F)cc(C(=O)Nc2ccc(OCCN3CCOCC3)c3ccccc23)c1` [Compound B210, 3-Fluoro-5-[isobutyl(methyl)amino]-N-[4-(2-morpholin-4-ylethoxy)-1-naphthyl]benzamide], the melting point was 126 to 128 °C. The IC50 at p38α came out at 1300 nM. In data set [1], the IC50 was over 10000 nM.

In turn, `CCn1c(COc2ccc(NC(=O)c3cc(F)cc(N4CCC(C)CC4)c3)c3ccccc23)n[nH]c1=O` [Compound B220, N-[4-(4-Ethyl-5-oxo-4,5-dihydro-1H-[1,2,4]triazol-3-ylmethoxy)-naphthalen-1-yl]-3-fluoro-5-(4-methyl-piperidin-1-yl)-benzamide] displayed a melting point of 240 to 241 °C. In addition, the 50% inhibitory concentration (IC50) at p38α amounted to 145 nM. Further, the 50% inhibitory concentration (IC50) in data set [1] was 2870 nM.

In the case of `O=C(Nc1ccc(OCCCc2cccnc2)c2ccccc12)c1cc(F)cc(N2CCOCC2)c1` [Compound B222, 3-Fluoro-5-morpholin-4-yl-N-[4-(3-pyridin-3-ylpropoxy)-1-naphthyl]benzamide], the melting point fell in the range of 64 to 66 °C. Also, the IC50 on p38α amounted to 820 nM. Besides, the 50% inhibitory concentration (IC50) in data set [1] was 9380 nM.

The molecule `O=C(Nc1ccc(OCCN2CCOCC2)c2ccccc12)c1cc(F)cc(OC2CCCC2)c1` [Compound B225, 3-(Cyclopentyloxy)-5-fluoro-N-[4-(2-morpholin-4-ylethoxy)-1-naphthyl]benzamide] yielded a melting point of 117 to 119 °C. Further, the IC50 on p38α is 439 nM. The IC50 in data set [1] came to 4090 nM.

In turn, `CC1CCC(Oc2cc(F)cc(C(=O)Nc3ccc(OCCN4CCOCC4)c4ccccc34)c2)C1` (stereo not shown) [Compound B227, 3-Fluoro-5-[(3-methylcyclopentyl)oxy]-N-[4-(2-morpholin-4-ylethoxy)-1-naphthyl]benzamide] returned a melting point of 65 to 66 °C. The IC50 on p38α was found to be 808 nM. Besides, the 50% inhibitory concentration (IC50) in data set [1] came out at 4120 nM.

The molecule `O=C(Nc1ccc(OCc2ccncc2)c2ccccc12)c1cc(F)cc(OC2CCOCC2)c1` [Compound B229, 3-Fluoro-N-[4-(pyridin-4-ylmethoxy)-1-naphthyl]-5-(tetrahydro-2H-pyran-4-yloxy)benzamide] displayed a melting point of 182 to 184 °C. The half-inhibitory concentration (IC50) at p38α came out at 821 nM. In addition, the IC50 in data set [1] came to 5660 nM.

Take `O=C(Nc1ccc(OCc2ccncc2)c2ccccc12)c1cc(F)cc(N2CCCCC2)c1` [Compound B230, 3-Fluoro-5-piperidin-1-yl-N-[4-(pyridin-4-ylmethoxy)-1-naphthyl]benzamide]: the melting point is 69 to 71 °C. The IC50 at p38α was 25.7 nM. Besides, the IC50 in data set [1] stood at 630 nM.

In turn, `Cc1ncsc1CCOc1ccc(NC(=O)c2cc(F)cc(N3CCOCC3)c2)c2ccccc12` [Compound B231, 3-Fluoro-N-{4-[2-(4-methyl-1,3-thiazol-5-yl)ethoxy]-1-naphthyl}-5-morpholin-4-ylbenzamide] gave a melting point of 186 to 187 °C. Besides, the IC50 at p38α was 27.7 nM. In data set [1], the half-maximal inhibitory concentration (IC50) came out at 193 nM.

`CC1=NC(C)(COc2ccc(NC(=O)c3cc(F)cc(N4CCOCC4)c3)c3ccccc23)CO1` (stereo not shown) [Compound B232, N-{4-[(2,4-Dimethyl-4,5-dihydro-1,3-oxazol-4-yl)methoxy]-1-naphthyl}-3-fluoro-5-morpholin-4-ylbenzamide]: the melting point lay within 203 to 206 °C. Moreover, at p38α, the half-inhibitory concentration (IC50) stood at 7860 nM. The IC50 in data set [1] came out at 4280 nM.

For the molecule `O=C(Nc1ccc(OCc2ccncc2)c2ccccc12)c1cc(F)cc(OC2CCCCC2)c1` [Compound B235, 3-(Cyclohexyloxy)-5-fluoro-N-[4-(pyridin-4-ylmethoxy)-1-naphthyl]benzamide], the melting point is 176 to 178 °C. Besides, at p38α, the IC50 came out at 125 nM. In addition, the IC50 in data set [1] was 557 nM.

The molecule `CSc1nccc(Oc2ccc(NC(=O)c3cc(F)cc(N4CCOCC4)c3)c3ccccc23)n1` [Compound B246, 3-Fluoro-N-(4-{[2-(methylthio)pyrimidin-4-yl]oxy}-1-naphthyl)-5-morpholin-4-ylbenzamide] returned a melting point of 189 to 190 °C. Moreover, the IC50 on p38α worked out at 40.2 nM. In addition, the IC50 in data set [1] stood at 69.4 nM.

Take `CSc1nccc(Oc2ccc(NC(=O)c3cc(F)cc(N4CCC(C)CC4)c3)c3ccccc23)n1` [Compound B247, 3-Fluoro-5-(4-methylpiperidin-1-yl)-N-(4-{[2-(methylthio)pyrimidin-4-yl]oxy}-1-naphthyl)benzamide]: the melting point is 142 to 143 °C. Moreover, the 50% inhibitory concentration (IC50) on p38α stood at 587 nM. Besides, the IC50 in data set [1] is 780 nM.

Values taken from patent US7829560B2, “1,4-disubstituted naphthalenes as inhibitors of P38 MAP kinase” (Arqule, Inc., priority 2004, dated 2010).
